Assay results from PubChem BioAssay AID602446 (National Center for Advancing Translational Sciences (NCATS), 2012).

System: Caco-2 permeability efflux ratio
Assay: High Content Assay for Compounds that inhibit the Assembly of the Perinucleolar Compartment: Efflux Ratio
Text: The perinucleolar compartment (PNC) is a non-membrane-bound nuclear subdomain that is associated with but structurally distinct from the nucleolus. The PNC is a heritable trait, in which the number of PNCs per cell in daughter cells often mimics that of their mother cells. The PNC is heterogeneous in shape, is stable through interphase, disassembles during mitosis, and reassembles in early G1. The PNC is concentrated with newly synthesized RNA polymerase III (pol III) RNAs (MRP RNA, RNAse P H1 RNA, hY RNAs[hY1, 2, 5], Alu RNA, and SRP [7SL] RNA) and RNA binding proteins (nucleolin, PTB, CUG-BP, KSRP, Raver1, Raver2, and Rod).
In collaboration between Sui Huang from Northwestern University and the NCGC, a high content assay was developed and screened. The hits were then tested in follow-up assays. High-content tumor cell migration assays in 3-dimensional extracellular matrices are powerful tools for modeling and understanding the biology of this critical step in the process of metastasis. However, most of the available methods are not amenable to the throughput required by studies of comparative pharmacology or small scale screening. […]
8. […] The T0, LY and T90, LY plates are read by FlexStation 3 at excitation of 485 nm and emission of 535 nm to determine LY permeability. […]

`N=c1c2c(-c3ccccc3)c(-c3ccccc3)n(Cc3ccccc3)c2ncn1C1CCC(O)CC1` (stereo unspecified) gave an efflux ratio of 11.
